Assays:
[1] = biological target: T1, Calcitonin gene-related peptide type 1 receptor (Homo sapiens, UniProt O60894+Q16602); experiment: biochemical; format: cell-based, HEK293
Description: Displacement of [125I]hCGRP from human CGRP receptor expressed in HEK293 cells coexpressing RAMP1

[2] = biological target: T1, Calcitonin gene-related peptide type 1 receptor; format: functional, cell-based, HEK293
[3] = biological target: T1, Calcitonin gene-related peptide type 1 receptor; experiment: Antagonistic activity at human CGRP receptor expressed in HEK293 cells coexpressing RAMP1 assessed as inhibition of CGRP-induced cAMP production; format: functional, cell-based

T1 sequence (Q16602 whole entry, one chain of several): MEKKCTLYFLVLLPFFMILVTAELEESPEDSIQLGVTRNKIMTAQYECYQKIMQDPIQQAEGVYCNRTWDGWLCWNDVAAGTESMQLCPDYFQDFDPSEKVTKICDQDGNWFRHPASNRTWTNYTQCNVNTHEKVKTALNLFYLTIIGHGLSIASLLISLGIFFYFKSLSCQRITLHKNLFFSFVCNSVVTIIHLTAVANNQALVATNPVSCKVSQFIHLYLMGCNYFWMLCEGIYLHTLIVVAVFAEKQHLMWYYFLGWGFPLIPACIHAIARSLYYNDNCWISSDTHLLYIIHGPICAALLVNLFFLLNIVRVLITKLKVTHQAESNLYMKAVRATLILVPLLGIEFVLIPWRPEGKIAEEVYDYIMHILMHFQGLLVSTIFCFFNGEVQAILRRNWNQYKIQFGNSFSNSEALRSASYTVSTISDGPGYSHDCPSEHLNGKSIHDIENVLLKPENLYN

SMILES	Ki [1]	IC50 [2]	IC50 [3]
Cc1cc(C)c2c(c1)n(CC(=O)Nc1ccc3c(c1)C[C@]1(C3)C(=O)Nc3ncccc31)c(=O)n2CC(=O)N(C)C	0.21 nM	4.1 nM	0.87 nM
O=C(Cn1c(=O)n(-c2ccccn2)c2ccccc21)Nc1ccc2c(c1)CC1(CCNC1=O)C2 (centres undefined)	270 nM		
O=C(Cn1c(=O)n(-c2ccccn2)c2ccccc21)Nc1ccc2c(c1)CC1(C2)C(=O)Nc2ccccc21 (centres undefined)	520 nM		
O=C(Cn1c(=O)n(C2CCSCC2)c2ccccc21)Nc1ccc2c(c1)C[C@]1(C2)C(=O)Nc2ncccc21	0.87 nM	24 nM	2.5 nM
O=C(Cn1c(=O)n(-c2ccccn2)c2ccccc21)Nc1ccc2c(c1)CC1(C2)C(=O)Nc2ncccc21 (centres undefined)	3.7 nM		
O=C(Cn1c(=O)n(-c2ccccn2)c2ccccc21)Nc1ccc2c(c1)C[C@@]1(C2)N=C(C2CC2)NC1=O	2600 nM		
O=C1CN(C2CCN(C(=O)N[C@@H]3N=C(c4ccccc4)c4ccccc4N(CC(F)(F)F)C3=O)CC2)C(=O)N1	520 nM		
CN1C(=O)NC(=O)[C@]12Cc1ccc(NC(=O)CN3C(=O)C4(CCOCC4)c4ccccc43)cc1C2	35 nM	160 nM	57 nM
O=C(Cn1c(=O)n(C2CCOC2)c2ccccc21)Nc1ccc2c(c1)C[C@]1(C2)C(=O)Nc2ncccc21 (some centres undefined)	1.2 nM	27 nM	5.2 nM
O=C(CN1C(=O)C2(CCOCC2)c2ccccc21)Nc1ccc2c(c1)C[C@]1(C2)C(=O)Nc2ncccc21	1.7 nM	39 nM	5.7 nM
O=C(Cn1c(=O)n(-c2ccccn2)c2ccccc21)Nc1ccc2c(c1)C[C@@]1(C2)N=C(c2cccnc2)NC1=O	130 nM		
CN1C(=O)NC(=O)[C@]12Cc1ccc(NC(=O)Cn3c(=O)n(-c4ccncn4)c4ccccc43)cc1C2	16 nM	74 nM	10 nM
O=C(N[C@@H]1N=C(c2ccccc2)c2ccccc2N(CC(F)(F)F)C1=O)N1CCC(n2c(=O)[nH]c3ncccc32)CC1	22 nM	730 nM	
O=C(Cn1c(=O)n(-c2ccccn2)c2ccccc21)Nc1ccc2c(c1)C[C@@]1(C2)N=C(c2ccccc2)NC1=O	34 nM		
CN1C(=O)NC(=O)[C@]12Cc1ccc(NC(=O)Cn3c(=O)n(C4CCSCC4)c4ccccc43)cc1C2	13 nM	220 nM	27 nM
O=C(N[C@@H]1N=C(c2ccccc2)c2ccccc2N(CC(F)(F)F)C1=O)N1CCC(n2c(=O)[nH]c3ccccc32)CC1	2200 nM		
O=C(Cn1c(=O)n(-c2ccccn2)c2ccccc21)Nc1ccc2c(c1)CC1(CCCNC1=O)C2 (centres undefined)	2700 nM		
O=C(Cn1c(=O)n(-c2ccccn2)c2ccccc21)Nc1ccc2c(c1)C[C@@]1(C2)NC(=O)NC1=O	230 nM		
CN1C(=O)NC(=O)[C@]12Cc1ccc(NC(=O)Cn3c(=O)n(C4CCOC4)c4ccccc43)cc1C2 (some centres undefined)		170 nM	
O=C(Cn1c(=O)n(-c2ccccn2)c2ccccc21)Nc1ccc2c(c1)C[C@]1(C2)C(=O)Nc2ncccc21	2.3 nM	420 nM	8.6 nM
O=C(Cn1c(=O)n(-c2ccncn2)c2ccccc21)Nc1ccc2c(c1)C[C@]1(C2)C(=O)Nc2ncccc21	0.61 nM	35 nM	1.6 nM
O=C(Cn1c(=O)n2c3c(cccc31)NC(=O)C2)Nc1ccc2c(c1)C[C@]1(C2)C(=O)Nc2ncccc21	0.04 nM	0.62 nM	0.28 nM
O=C1CC2(Cc3ccc(NC(=O)Cn4c(=O)n(-c5ccccn5)c5ccccc54)cc3C2)C(=O)N1 (centres undefined)	96 nM		

Reference: ChEMBL document CHEMBL1139248 (Bioorg Med Chem Lett, 2009)
